# Laboratory results published in paper PMC9774128, “New Insights into the Mechanism of Antibacterial Action of Synthetic Peptide Mo-CBP3-PepI against Klebsiella pneumoniae” (Antibiotics, 2022).
# Assays:
# L929 cells [1] = assay: Alkaline comet assay (DNA damage); type: cell-based, mice; conditions: MMS 4 × 10^−5 M, 24 h
# Protocol: (§1) For this assay, MMS at 4 × 10^−5 M was used as the positive control for DNA damage, and peptides were assayed at 1 mg mL^−1. The standard alkaline comet assay (single-cell gel electrophoresis) after treatment (24 h). Cells were washed with ice-cold PBS, trypsinized, and resuspended in a complete medium. […] Afterward, the slides were placed in a horizontal electrophoresis unit and incubated with fresh buffer solution (0.3 M NaOH, 0.001 M EDTA, pH 13.0) at 4 °C for 20 min to allow DNA to unwind and the expression of alkali-labile sites. Electrophoresis was conducted for 20 min at 25 V ([…]). All the above steps were performed in the dark to prevent additional DNA damage. Slides were neutralized (0.4 M Tris, pH 7.5) and stained using 20 µg mL of ethidium bromide. Three hundred cells (100 cells from each of the three replicate slides for each treatment) were selected, coded, and blindly analyzed for DNA migration. These cells were visually scored according to tail length into five classes: • Class 0: undamaged, without a tail; • Class 1: with a tail shorter than the diameter of the head nucleus; • Class 2: with tail length 1–2× the diameter of the head; • Class 3: with a tail longer than 2× the diameter of the head; • Class 4: comets with no heads. The index of damage (ID) value was calculated for each sample. […]
# L929 cells [2] = assay: Morphological analysis of apoptotic cells (AO/EB staining); type: cell-based, mice; conditions: peptide 1 mg mL^−1, MMS 4 × 10^−5 M, 24 h
# Protocol: (§2) For this assay, the concentration of peptides was 1 mg mL^−1. […] Peptides and control solutions were incubated as described above. Cells with the morphological characteristics of apoptosis, such as apoptotic bodies, peripheral condensation of chromatin, fragmented nucleus, and small cell volume, were evaluated after 24 h of treatment, either with controls or peptides. The evaluation was executed using acridine orange (AO)/ethidium bromide (EB) staining assay. A total of 50 µL of the cell suspension was mixed with 1 µL of the staining solution (100 µg/mL AO + 100 µg/mL EB in PBS) and spread on a slide, where 300 cells were counted per data point.
# HaCaT cells [3] = assay: Alkaline comet assay (DNA damage); type: cell-based, human; conditions: peptide 1 mg mL^−1, MMS 4 × 10^−5 M, 24 h
# Protocol: as §1
# MRC-5 cells [4] = assay: Alkaline comet assay (DNA damage); type: cell-based, human; conditions: peptide 1 mg mL^−1, MMS 4 × 10^−5 M, 24 h
# Protocol: as §1
# HaCaT cells [5] = assay: Morphological analysis of apoptotic cells (AO/EB staining); type: cell-based, human; conditions: peptide 1 mg mL^−1, MMS 4 × 10^−5 M, 24 h
# Protocol: as §2
# MRC-5 cells [6] = assay: as above; type: cell-based, human; conditions: peptide 1 mg mL^−1, MMS 4 × 10^−5 M, 24 h
# Protocol: as §2
# [7] = system: HaCaT (human keratinocytes); assay: Cytotoxicity MTT assay; type: cell-based; conditions: peptide 1 mg mL^−1, MMS 4 × 10^−5 M, absorbance 595 nm, three independent experiments
# Protocol: (§3) The cytotoxicity assay was assessed by measuring the ability of live cells to convert a yellow dye, 3-(4,5-dimethyl-2-thiozolyl)-2,5-diphenyl-2H-tetrazolium bromide (MTT), to formazan. The cell lines used were L929 (murine fibroblasts, ATCC number CCL-1), MRC-5 (human lung fibroblasts, ATCC number CCL-171), and HaCaT (human keratinocytes) following the methodology described by Souza et al.. Cells were treated with Mo-CBP3-PepI at 1 mg mL^−1. The alkylating agent methyl methanesulfonate (MMS) at 4 × 10^−5 M was used as the positive control. The MTT formazan product was dissolved in 150 µL of DMSO, and the absorbance was measured using a multiplate reader (Spectra Count, Packard, Mississauga, ON, Canada). The drug effect was quantified as the percentage of control absorbance of the reduced dye at 595 nm.
# [8] = system: MRC-5 (human lung fibroblasts); assay: Cytotoxicity MTT assay; type: cell-based; conditions: peptide 1 mg mL^−1, MMS 4 × 10^−5 M, absorbance 595 nm, three independent experiments
# Protocol: as §3
# [9] = system: L929 (murine fibroblasts); assay: Cytotoxicity MTT assay; type: cell-based, mice; conditions: peptide 1 mg mL^−1, MMS 4 × 10^−5 M, absorbance 595 nm, three independent experiments
# Protocol: as §3
smiles,measurement,setting,value
"COS(C)(=O)=O [MMS, methyl methanesulfonate]",DNA damage (comet assay),L929 cells [1],completely damaged DNA
same,cell morphology / apoptosis,L929 cells [2],severe damage to DNA and nuclei structure
same,DNA damage (comet assay),HaCaT cells [3],completely damaged DNA
same,DNA damage (comet assay),MRC-5 cells [4],completely damaged DNA
same,cell morphology / apoptosis,HaCaT cells [5],severe damage to DNA and nuclei structure
same,cell morphology / apoptosis,MRC-5 cells [6],severe damage to DNA and nuclei structure
same,cell viability (MTT),[7],death of all cells
same,cell viability (MTT),[8],death of all cells
same,cell viability (MTT),[9],death of all cells
